Reference: PubChem BioAssay AID256 (DTP/NCI, 2004)
Toxic doses and inconclusive results are not listed.

Test system: CD2F1 mice, L1210 leukemia ip, survival T/C
Assay: NCI In Vivo Anticancer Drug Screen. Data for tumor model L1210 Leukemia (intraperitoneal) in CD2F1 (CDF1) mice
Conditions: higher = longer survival
Procedure, shortened: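 Antitumor effect is scored in animals hosting a serially transplanted tumor. Values compare compound-dosed animals against vehicle-only controls as a simple quotient.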

[1] = endpoint: mean survival time, dose: 100.0 mg/kg/injection, schedule: Q01DX009 (ip), vehicle: saline with Tween-80
[2] = endpoint: mean survival time, dose: 200.0 mg/kg/injection, schedule: Q01DX009 (ip), vehicle: saline with Tween-80
[3] = endpoint: mean survival time, dose: 100.0 mg/kg/injection, schedule: Q04DX003 (ip), vehicle: saline with Tween-80
[4] = endpoint: mean survival time, dose: 200.0 mg/kg/injection, schedule: Q04DX003 (ip), vehicle: saline with Tween-80
[5] = endpoint: mean survival time, dose: 400.0 mg/kg/injection, schedule: Q04DX003 (ip), vehicle: saline with Tween-80
[6] = endpoint: mean survival time, dose: 400.0 mg/kg/injection, schedule: Q01DX009 (ip), vehicle: saline with Tween-80
[7] = endpoint: mean survival time, dose: 12.5 mg/kg/injection, schedule: Q01DX009 (ip), vehicle: saline
[8] = endpoint: mean survival time, dose: 25.0 mg/kg/injection, schedule: Q01DX009 (ip), vehicle: saline
[9] = endpoint: mean survival time, dose: 50.0 mg/kg/injection, schedule: Q01DX009 (ip), vehicle: saline
[10] = endpoint: mean survival time, dose: 25.0 mg/kg/injection, schedule: Q01DX009 (ip), vehicle: saline with Tween-80

Compound: COc1cccc(NC(=S)/C(=C(\[O-])c2ccc([N+](=O)[O-])cc2)[n+]2ccc(C(C)C)cc2)c1
- T/C [1]: 95 % of control
- T/C [2]: 93 % of control

Compound: Cc1c(F)cccc1NC(=O)OC(C)C
- T/C (endpoint: mean survival time, dose: 100.0 mg/kg/injection, schedule: Q04DX002 (ip), vehicle: saline with Tween-80): 97 % of control
- T/C (endpoint: mean survival time, dose: 200.0 mg/kg/injection, schedule: Q04DX002 (ip), vehicle: saline with Tween-80): 102 % of control
- T/C (endpoint: mean survival time, dose: 400.0 mg/kg/injection, schedule: Q04DX002 (ip), vehicle: saline with Tween-80): 94 % of control

Compound: NP(=O)(OCCC(OCc1ccccc1)OCc1ccccc1)N(CCCl)CCCl (stereo not given)
- T/C (endpoint: mean survival time, dose: 25.0 mg/kg/injection, schedule: Q01DX001 (ip), vehicle: DMSO): 100 % of control
- T/C (endpoint: mean survival time, dose: 50.0 mg/kg/injection, schedule: Q01DX001 (ip), vehicle: DMSO): 100 % of control
- T/C (endpoint: mean survival time, dose: 100.0 mg/kg/injection, schedule: Q01DX001 (ip), vehicle: DMSO): 91 % of control
- T/C (endpoint: mean survival time, dose: 200.0 mg/kg/injection, schedule: Q01DX001 (ip), vehicle: DMSO): 97 % of control
- T/C (endpoint: mean survival time, dose: 400.0 mg/kg/injection, schedule: Q01DX001 (ip), vehicle: DMSO): 103 % of control

Compound: Cc1ccc(N=C=C(c2ccccc2)c2ccccc2)cc1
- T/C [3]: 94 % of control
- T/C [4]: 97 % of control
- T/C [5]: 94 % of control

Compound: O=C(O)CSCSCC(=O)O
- T/C (endpoint: mean survival time, dose: 100.0 mg/kg/injection, schedule: Q04DX003 (ip), vehicle: saline): 97 % of control
- T/C (endpoint: mean survival time, dose: 200.0 mg/kg/injection, schedule: Q04DX003 (ip), vehicle: saline): 100 % of control
- T/C (endpoint: mean survival time, dose: 400.0 mg/kg/injection, schedule: Q04DX003 (ip), vehicle: saline): 97 % of control

Compound: COc1ccc(COC(=O)Oc2ccc(C)cc2)cc1OC
- T/C [1]: 100 % of control
- T/C [2]: 102 % of control
- T/C [6]: 98 % of control

Compound: CCN(CC)CCOc1ccc2c(c1)C(=O)c1cc(OCCN(CC)CC)ccc1-2
- T/C [7]: 95 % of control
- T/C [8]: 98 % of control
- T/C [9]: 101 % of control

Compound: COc1ccc(C2=NC(C)Cc3cc(OC)c(OC)cc32)cc1OC (stereo not given)
- T/C (endpoint: mean survival time, dose: 12.5 mg/kg/injection, schedule: Q01DX009 (ip), vehicle: water): 96 % of control
- T/C (endpoint: mean survival time, dose: 25.0 mg/kg/injection, schedule: Q01DX009 (ip), vehicle: water): 94 % of control
- T/C (endpoint: mean survival time, dose: 50.0 mg/kg/injection, schedule: Q01DX009 (ip), vehicle: water): 94 % of control
- T/C (endpoint: mean survival time, dose: 100.0 mg/kg/injection, schedule: Q01DX009 (ip), vehicle: water): 91 % of control

Compound: CCCCC(NCCNC(CCCC)C(=O)O)C(=O)O (stereo not given)
- T/C [3]: 102 % of control
- T/C [4]: 91 % of control
- T/C [5]: 107 % of control

Compound: COC(C(O)C=O)C(O)C(O)CO (stereo not given)
- T/C [3]: 96 % of control
- T/C [4]: 101 % of control
- T/C [5]: 95 % of control

Compound: Oc1c(Cl)c(Cl)c(O)c(Cl)c1Cl
- T/C (endpoint: mean survival time, dose: 6.25 mg/kg/injection, schedule: Q01DX001 (ip), vehicle: saline with Tween-80): 98 % of control
- T/C (endpoint: mean survival time, dose: 12.5 mg/kg/injection, schedule: Q01DX001 (ip), vehicle: saline with Tween-80): 95 % of control
- T/C (endpoint: mean survival time, dose: 25.0 mg/kg/injection, schedule: Q01DX001 (ip), vehicle: saline with Tween-80): 95 % of control

Compound: CC(C)(C)C1=CC(=O)C(C#N)=C(C#N)C1=O
- T/C [10]: 96 % of control

Compound: CCC(=O)c1ccc(Cc2ccc(C(=O)CC)cc2)cc1
- T/C [9]: 87 % of control
- T/C (endpoint: mean survival time, dose: 100.0 mg/kg/injection, schedule: Q01DX009 (ip), vehicle: saline): 92 % of control
- T/C (endpoint: mean survival time, dose: 200.0 mg/kg/injection, schedule: Q01DX009 (ip), vehicle: saline): 98 % of control
- T/C (endpoint: mean survival time, dose: 400.0 mg/kg/injection, schedule: Q01DX009 (ip), vehicle: saline): 93 % of control

Compound: CC(C)OC(=O)Oc1cccs1
- T/C (endpoint: mean survival time, dose: 12.5 mg/kg/injection, schedule: Q01DX009 (ip), vehicle: saline with Tween-80): 102 % of control
- T/C (endpoint: mean survival time, dose: 12.5 mg/kg/injection, schedule: Q04DX003 (ip), vehicle: saline sonified): 103 % of control
- T/C [10]: 96 % of control
- T/C (endpoint: mean survival time, dose: 25.0 mg/kg/injection, schedule: Q04DX003 (ip), vehicle: saline sonified): 97 % of control
- T/C (endpoint: mean survival time, dose: 50.0 mg/kg/injection, schedule: Q01DX009 (ip), vehicle: saline with Tween-80): 104 % of control
- T/C (endpoint: mean survival time, dose: 50.0 mg/kg/injection, schedule: Q04DX003 (ip), vehicle: saline sonified): 101 % of control

Compound: O=C1OCC2(C(=O)O)C(=O)OCC12 (stereo not given)
- T/C (endpoint: mean survival time, dose: 50.0 mg/kg/injection, schedule: Q01DX001 (ip), vehicle: saline): 97 % of control
- T/C (endpoint: mean survival time, dose: 100.0 mg/kg/injection, schedule: Q01DX001 (ip), vehicle: saline): 106 % of control
- T/C (endpoint: mean survival time, dose: 200.0 mg/kg/injection, schedule: Q01DX001 (ip), vehicle: saline): 106 % of control
- T/C (endpoint: mean survival time, dose: 400.0 mg/kg/injection, schedule: Q01DX001 (ip), vehicle: saline): 101 % of control

Compound: CCOC(=O)C12CCCCCC1CC(=O)CC2 (stereo not given)
- T/C (endpoint: mean survival time, dose: 100.0 mg/kg/injection, schedule: Q04DX003 (ip), vehicle: acetone): 96 % of control
- T/C (endpoint: mean survival time, dose: 200.0 mg/kg/injection, schedule: Q04DX003 (ip), vehicle: acetone): 93 % of control
- T/C (endpoint: mean survival time, dose: 400.0 mg/kg/injection, schedule: Q04DX003 (ip), vehicle: acetone): 86 % of control

Compound: OCC1OC([Se])C(O)C(O)C1O.[CH3][Sb][CH3] (stereo not given)
- T/C (endpoint: mean survival time, dose: 50.0 mg/kg/injection, schedule: Q01DX009 (ip), vehicle: Klucel (hydroxypropylcellulose) (HPC)): 88 % of control

Compound: Nc1ccc(S(=O)(=O)Nc2cnc3c(Cl)cccc3n2)cc1
- T/C (endpoint: median survival time, dose: 100.0 mg/kg/injection, schedule: Q01DX005 (ip), vehicle: DMSO): 98 % of control
- T/C (endpoint: median survival time, dose: 200.0 mg/kg/injection, schedule: Q01DX005 (ip), vehicle: DMSO): 98 % of control
- T/C (endpoint: median survival time, dose: 400.0 mg/kg/injection, schedule: Q01DX005 (ip), vehicle: DMSO): 98 % of control
- T/C (endpoint: median survival time, dose: 800.0 mg/kg/injection, schedule: Q01DX005 (ip), vehicle: DMSO): 105 % of control

Compound: CC12CCC3C(CC=C4CC([Se]C(=N)N)CCC43C)C1CCC2=O (stereo not given)
- T/C (endpoint: mean survival time, dose: 75.0 mg/kg/injection, schedule: Q01DX001 (ip), vehicle: steriod suspending solution): 95 % of control
- T/C (endpoint: mean survival time, dose: 150.0 mg/kg/injection, schedule: Q01DX001 (ip), vehicle: steriod suspending solution): 95 % of control
- T/C (endpoint: mean survival time, dose: 300.0 mg/kg/injection, schedule: Q01DX001 (ip), vehicle: steriod suspending solution): 95 % of control

Compound: O=S(=O)(Nc1ccc(NS(=O)(=O)c2ccccc2)c2ccccc12)c1ccccc1
- T/C [3]: 97 % of control
- T/C [4]: 91 % of control
- T/C [5]: 96 % of control

Compound: COC1CCC(/C(C#N)=C/C2CCC(N(C)C)CC2)CC1 (stereo not given)
- T/C [1]: 89 % of control
- T/C [2]: 100 % of control
- T/C [6]: 96 % of control

Compound: O=C(O)C1CCCCC1C(=O)O.[NH-]C1CCCCC1[NH-].[Pt+2] (stereo not given)
- T/C (endpoint: mean survival time, dose: 3.13 mg/kg/injection, schedule: Q04DX003 (ip), vehicle: other): 106 % of control
- T/C (endpoint: mean survival time, dose: 6.25 mg/kg/injection, schedule: Q04DX003 (ip), vehicle: other): 106 % of control
- T/C (endpoint: mean survival time, dose: 12.5 mg/kg/injection, schedule: Q04DX003 (ip), vehicle: other): 116 % of control
- T/C (endpoint: mean survival time, dose: 100.0 mg/kg/injection, schedule: Q04DX003 (ip), vehicle: other): 187 % of control
- T/C (endpoint: mean survival time, dose: 200.0 mg/kg/injection, schedule: Q04DX003 (ip), vehicle: other): 168 % of control

Compound: NN(C(=O)c1ccccc1)c1ccccc1
- T/C [1]: 98 % of control
- T/C [3]: 95 % of control
- T/C [4]: 97 % of control
- T/C [5]: 100 % of control

Compound: CC(=O)C1CN(C(C)(C)C)C1
- T/C (endpoint: mean survival time, dose: 6.25 mg/kg/injection, schedule: Q01DX009 (ip), vehicle: saline): 93 % of control
- T/C (endpoint: mean survival time, dose: 6.25 mg/kg/injection, schedule: Q04DX003 (ip), vehicle: saline): 98 % of control
- T/C [7]: 98 % of control
- T/C (endpoint: mean survival time, dose: 12.5 mg/kg/injection, schedule: Q04DX003 (ip), vehicle: saline): 96 % of control
- T/C [8]: 98 % of control
- T/C (endpoint: mean survival time, dose: 25.0 mg/kg/injection, schedule: Q04DX003 (ip), vehicle: saline): 95 % of control

Compound: CC(=O)OC1(c2cc(C(F)(F)F)cc(C(F)(F)F)c2)C2CCC1CC2 (stereo not given)
- T/C (endpoint: mean survival time, dose: 12.5 mg/kg/injection, schedule: Q04DX002 (ip), vehicle: saline with Tween-80): 101 % of control
- T/C (endpoint: mean survival time, dose: 25.0 mg/kg/injection, schedule: Q04DX002 (ip), vehicle: saline with Tween-80): 97 % of control
- T/C (endpoint: mean survival time, dose: 50.0 mg/kg/injection, schedule: Q04DX002 (ip), vehicle: saline with Tween-80): 97 % of control
